Measurements reported in PubChem BioAssay AID328 (DTP/NCI, 2004).
Where “and” joins values, the source holds several entries; their conditions need not be identical. Equal values may be shown once. Inconclusive results and toxic doses are left out.

Tested on: BDF1 mice, P388 leukemia ip, median survival T/C
Assay: NCI In Vivo Anticancer Drug Screen. Data for tumor model P388 Leukemia (intraperitoneal) in B6D2F1 (BDF1) mice
Settings: endpoint: median survival time, higher = longer survival
In short: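 Read-out is survival of treated animals expressed relative to the vehicle group, as a T/C ratio.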

[1] = dose: 12.5 mg/kg/injection, schedule: Q01DX009 (ip), vehicle: saline with Tween-80
[2] = dose: 25.0 mg/kg/injection, schedule: Q01DX009 (ip), vehicle: saline with Tween-80
[3] = dose: 50.0 mg/kg/injection, schedule: Q01DX009 (ip), vehicle: saline with Tween-80
[4] = dose: 50.0 mg/kg/injection, schedule: Q04DX003 (ip), vehicle: saline with Tween-80
[5] = dose: 100.0 mg/kg/injection, schedule: Q01DX009 (ip), vehicle: saline with Tween-80
[6] = dose: 100.0 mg/kg/injection, schedule: Q04DX003 (ip), vehicle: saline with Tween-80
[7] = dose: 200.0 mg/kg/injection, schedule: Q01DX009 (ip), vehicle: saline with Tween-80
[8] = dose: 200.0 mg/kg/injection, schedule: Q04DX003 (ip), vehicle: saline with Tween-80
[9] = dose: 400.0 mg/kg/injection, schedule: Q01DX009 (ip), vehicle: saline with Tween-80
[10] = dose: 25.0 mg/kg/injection, schedule: Q01DX009 (ip), vehicle: saline
[11] = dose: 50.0 mg/kg/injection, schedule: Q01DX009 (ip), vehicle: saline
[12] = dose: 100.0 mg/kg/injection, schedule: Q04DX003 (ip), vehicle: Klucel (hydroxypropylcellulose) (HPC)
[13] = dose: 200.0 mg/kg/injection, schedule: Q04DX003 (ip), vehicle: Klucel (hydroxypropylcellulose) (HPC)
[14] = dose: 400.0 mg/kg/injection, schedule: Q04DX003 (ip), vehicle: Klucel (hydroxypropylcellulose) (HPC)
[15] = dose: 100.0 mg/kg/injection, schedule: Q01DX009 (ip), vehicle: Klucel (hydroxypropylcellulose) (HPC)
[16] = dose: 200.0 mg/kg/injection, schedule: Q01DX009 (ip), vehicle: Klucel (hydroxypropylcellulose) (HPC)
[17] = dose: 400.0 mg/kg/injection, schedule: Q01DX009 (ip), vehicle: Klucel (hydroxypropylcellulose) (HPC)
[18] = dose: 400.0 mg/kg/injection, schedule: Q04DX003 (ip), vehicle: saline with Tween-80
[19] = dose: 12.5 mg/kg/injection, schedule: Q01DX009 (ip), vehicle: saline
[20] = dose: 50.0 mg/kg/injection, schedule: Q01DX009 (ip), vehicle: Klucel (hydroxypropylcellulose) (HPC)

For `O=Cc1nccn1Cc1ccccc1`, the T/C [1] was 116 % of control, the T/C (dose: 12.5 mg/kg/injection, schedule: Q04DX003 (ip), vehicle: saline with Tween-80) was 100 % of control and the T/C [2] was 100 % of control. For the same molecule, the T/C (dose: 25.0 mg/kg/injection, schedule: Q04DX003 (ip), vehicle: saline with Tween-80) was 103 % of control, the T/C [3] was 108 % of control and the T/C [4] was 96 % of control. For the same molecule, the T/C [5] was 105 % of control, the T/C [6] was 106 % of control and the T/C [7] was 98 % of control. The T/C [8] was 101 % of control and 106 % of control, the T/C (dose: 300.0 mg/kg/injection, schedule: Q04DX003 (ip), vehicle: saline with Tween-80) was 103 % of control and the T/C [9] was 107 % of control.

`NS(=O)(=O)c1ccc(Cl)cc1` was tested, and the T/C [10] was 113 % of control, the T/C [11] was 109 % of control and the T/C (dose: 75.0 mg/kg/injection, schedule: Q04DX003 (ip), vehicle: saline) was 100 % of control. For the same molecule, the T/C (dose: 100.0 mg/kg/injection, schedule: Q01DX009 (ip), vehicle: saline) was 86 % of control, the T/C (dose: 150.0 mg/kg/injection, schedule: Q04DX003 (ip), vehicle: saline) was 109 % of control and the T/C (dose: 300.0 mg/kg/injection, schedule: Q04DX003 (ip), vehicle: saline) was 109 % of control.

`c1ccc(C2SCCSCCS2)cc1` was tested, and the T/C [12] was 90 % of control, the T/C [13] was 100 % of control and the T/C [14] was 100 % of control.

For `O=C1C(Cl)=C(Cl)C(=O)C2=C1C1c3ccccc3C2c2ccccc21`, the T/C [15] was 115 % of control, the T/C [16] was 120 % of control and the T/C (dose: 200.0 mg/kg/injection, schedule: Q04DX003 (ip), vehicle: saline sonified) was 109 % of control. The T/C [17] was 105 % of control and the T/C (dose: 400.0 mg/kg/injection, schedule: Q04DX003 (ip), vehicle: saline sonified) was 104 % of control.

In the case of `[Br][Co][Br].[NH-]CC[NH-].[NH-]CC[NH-]`, the T/C (dose: 200.0 mg/kg/injection, schedule: Q04DX003 (ip), vehicle: saline) is reported as 109 % of control.

`Cc1cc2c(c3ncccc13)OCN(Cc1ccc(Cl)c(Cl)c1)C2` was tested, and the T/C [1] was 113 % of control, the T/C [2] was 108 % of control and the T/C [3] was 104 % of control.

With `C(=N\Nc1nc2ccccc2o1)/c1ccncc1` the T/C [15] was 100 % of control and 104 % of control, the T/C [12] was 100 % of control and the T/C [16] was 109 % of control. The T/C [13] was 95 % of control, the T/C [17] was 105 % of control and 109 % of control and the T/C [14] was 100 % of control.

In the case of `Cc1cc(O)c(C(c2ccc(Cl)cc2)c2c(O)cc(C)[nH]c2=O)c(=O)[nH]1`, the T/C [3] is reported as 108 % of control, the T/C [5] is reported as 108 % of control and the T/C [7] is reported as 105 % of control.

For `COC(=O)c1cc(=O)n(-c2ccccc2C(F)(F)F)c(SC)n1`, the T/C [12] was 116 % of control and the T/C [14] was 123 % of control.

In the case of `Cc1cc(-c2ccccc2)[s+]s1`, the T/C [2] is reported as 122 % of control, the T/C [3] is reported as 113 % of control and the T/C [4] is reported as 109 % of control. The T/C [5] was 117 % of control, the T/C [8] was 117 % of control and the T/C [18] was 118 % of control.

With `C=C(Cl)COC1CCS(=O)(=O)C1` (centres undefined) the T/C (dose: 6.25 mg/kg/injection, schedule: Q01DX009 (ip), vehicle: saline with Tween-80) was 90 % of control, the T/C [1] was 90 % of control and the T/C [2] was 93 % of control.

In the case of `Nc1nc(SCc2cccc(Br)c2)c2ncn(C3OC(CO)C(O)C3O)c2n1` (centres undefined), the T/C [6] is reported as 104 % of control and the T/C [8] is reported as 122 % of control.

For `CCCC1CCC(=C2C(=O)CCC2=O)O1` (centres undefined), the T/C (dose: 3.13 mg/kg/injection, schedule: Q01DX009 (ip), vehicle: saline) was 119 % of control, the T/C (dose: 6.25 mg/kg/injection, schedule: Q01DX009 (ip), vehicle: saline) was 119 % of control and the T/C [19] was 119 % of control. For the same molecule, the T/C [10] was 119 % of control, the T/C (dose: 25.0 mg/kg/injection, schedule: Q04DX002 (ip), vehicle: saline with Tween-80) was 113 % of control and the T/C (dose: 25.0 mg/kg/injection, schedule: Q04DX002 (ip), vehicle: saline) was 107 % of control. For the same molecule, the T/C (dose: 50.0 mg/kg/injection, schedule: Q04DX002 (ip), vehicle: saline with Tween-80) was 103 % of control, the T/C (dose: 50.0 mg/kg/injection, schedule: Q04DX002 (ip), vehicle: saline) was 100 % of control and the T/C (dose: 100.0 mg/kg/injection, schedule: Q04DX002 (ip), vehicle: saline with Tween-80) was 120 % of control. For the same molecule, the T/C (dose: 200.0 mg/kg/injection, schedule: Q04DX002 (ip), vehicle: saline) was 105 % of control.

In the case of `CC1(C)N=C(N)N=C(N)N1c1ccccc1`, the T/C [19] is reported as 118 % of control, the T/C [10] is reported as 113 % of control and the T/C [11] is reported as 118 % of control.

For `Cc1cc(C(C)(C)CC(C)(C)C)ccc1O`, the T/C (dose: 88.0 mg/kg/injection, schedule: Q01DX009 (sc), vehicle: olive oil, sesame oil, peanut oil) was 100 % of control, the T/C (dose: 100.0 mg/kg/injection, schedule: Q01DX009 (sc), vehicle: olive oil, sesame oil, peanut oil) was 100 % of control and the T/C (dose: 100.0 mg/kg/injection, schedule: Q04DX003 (sc), vehicle: olive oil, sesame oil, peanut oil) was 91 % of control. The T/C (dose: 133.0 mg/kg/injection, schedule: Q01DX009 (sc), vehicle: olive oil, sesame oil, peanut oil) was 92 % of control, the T/C (dose: 200.0 mg/kg/injection, schedule: Q01DX009 (sc), vehicle: olive oil, sesame oil, peanut oil) was 86 % of control and the T/C (dose: 200.0 mg/kg/injection, schedule: Q04DX003 (sc), vehicle: olive oil, sesame oil, peanut oil) was 100 % of control. For the same molecule, the T/C (dose: 300.0 mg/kg/injection, schedule: Q01DX009 (sc), vehicle: olive oil, sesame oil, peanut oil) was 106 % of control, the T/C (dose: 400.0 mg/kg/injection, schedule: Q01DX009 (sc), vehicle: olive oil, sesame oil, peanut oil) was 110 % of control and the T/C (dose: 400.0 mg/kg/injection, schedule: Q04DX003 (sc), vehicle: olive oil, sesame oil, peanut oil) was 104 % of control.

For `CCOC(=O)c1cc(C=O)c[nH]1`, the T/C [3] was 93 % of control, the T/C [5] was 99 % of control and the T/C [7] was 101 % of control.

In the case of `O=C(CCl)Oc1ccc(-c2ccccc2)cc1Br`, the T/C [3] is reported as 105 % of control, the T/C [5] is reported as 102 % of control and the T/C [7] is reported as 103 % of control. For the same molecule, the T/C [9] was 88 % of control.

For `Cc1ccnc(NS(=O)(=O)c2ccc(N=Cc3ccc(N(C)C)cc3)cc2)n1`, the T/C [3] was 90 % of control, the T/C [5] was 93 % of control and the T/C [7] was 90 % of control.

In the case of `COc1cc2cc(c1Cl)N(C)C(=O)CC(OC(=O)C(C)C)C1(C)OC1C(C)C1CC(O)(NC(=O)O1)C(OC)/C=C/C=C(/C)C2OC(C)=O` (centres undefined), the T/C (dose: 1.6 micrograms/kg/injection, schedule: Q01DX009 (ip), vehicle: saline + alcohol) is reported as 162 % of control, the T/C (dose: 3.1 micrograms/kg/injection, schedule: Q01DX009 (ip), vehicle: saline + alcohol) is reported as 150 % of control and the T/C (dose: 6.2 micrograms/kg/injection, schedule: Q01DX009 (ip), vehicle: saline + alcohol) is reported as 166 % of control. The T/C (dose: 12.5 micrograms/kg/injection, schedule: Q01DX009 (ip), vehicle: saline + alcohol) was 179 % of control and the T/C (dose: 25.0 micrograms/kg/injection, schedule: Q01DX009 (ip), vehicle: saline + alcohol) was 170 % of control.

With `O=C(Nc1ccc(C(=O)Nc2cc(S(=O)(=O)O)cc3cccc(S(=O)(=O)O)c23)cc1)Nc1ccc(C(=O)Nc2cc(S(=O)(=O)O)cc3cccc(S(=O)(=O)O)c23)cc1` the T/C [20] was 95 % of control, the T/C (dose: 50.0 mg/kg/injection, schedule: Q04DX003 (ip), vehicle: Klucel (hydroxypropylcellulose) (HPC)) was 100 % of control and the T/C [15] was 110 % of control. The T/C [12] was 104 % of control and the T/C [13] was 86 % of control.

For `CCC(=O)Oc1ccc2c(c1)CC[C@@H]1[C@@H]2CC[C@]2(C)C[C@H](OC(=O)CC)C[C@@H]12`, the T/C [5] was 100 % of control, the T/C [6] was 95 % of control and the T/C [7] was 118 % of control. The T/C [8] was 100 % of control, the T/C [9] was 118 % of control and the T/C [18] was 90 % of control.

In the case of `O=C1c2ccccc2C(=O)C1(Cl)C(Cl)c1ccc([N+](=O)[O-])cc1` (centres undefined), the T/C [15] is reported as 105 % of control, the T/C [16] is reported as 90 % of control and the T/C [17] is reported as 100 % of control.

For `O=C(NNc1ccccc1)OCc1ccccc1`, the T/C (dose: 12.5 mg/kg/injection, schedule: Q01DX009 (ip), vehicle: Klucel (hydroxypropylcellulose) (HPC)) was 100 % of control, the T/C (dose: 25.0 mg/kg/injection, schedule: Q01DX009 (ip), vehicle: Klucel (hydroxypropylcellulose) (HPC)) was 115 % of control and the T/C [20] was 110 % of control. The T/C (dose: 75.0 mg/kg/injection, schedule: Q04DX003 (ip), vehicle: Klucel (hydroxypropylcellulose) (HPC)) was 95 % of control, the T/C (dose: 150.0 mg/kg/injection, schedule: Q04DX003 (ip), vehicle: Klucel (hydroxypropylcellulose) (HPC)) was 100 % of control and the T/C (dose: 300.0 mg/kg/injection, schedule: Q04DX003 (ip), vehicle: Klucel (hydroxypropylcellulose) (HPC)) was 90 % of control.
